Laboratory results as given in patent US20110071174A1, “SUBSTITUTED QUINAZOLINES” (Shire LLC, priority 2008, published 2011).
pIC50: −log10 of the molar value.

Key:
[1] = test system: human phosphodiesterase III (PDE III); experiment: PDE III inhibition; format: biochemical; conditions: more potent than anagrelide
Source text: In early volunteer trials, the most frequently reported adverse effects AEs other than headache were palpitations, postural dizziness and nausea. During patient studies, the most frequently reported drug-related AEs were headache, palpitations, oedema/fluid retention, nausea/vomiting, diarrhea, dizziness and abdominal pain. These effects are all likely to arise from the secondary, cardiovascular pharmacology associated with anagrelide resulting from its inhibitory effects on human phosphodiesterase III (PDE III). […] Inhibition of myocardial PDE III leads to positive inotropy (increasing of the force of contractions of the heart), increased chronotropy (increase in heart rate), and peripheral vasodilatation. Such cardiovascular manifestations of this inhibition are typically seen with the classical positive inotropes, milrinone and enoximone, and exploited in the short-term acute treatment of congestive heart failure. However, in the treatment of a so-called silent disease (i.e., asymptomatic) such as ET, the cardiovascular side-effects of palpitations and tachycardia associated with anagrelide limit its utility and a significant proportion of patients—reportedly between 25 and 50%—fail to tolerate the drug during long term treatment.

[2] = Pharmacokinetics and exposure in humans; format: in vivo, human; conditions: typical exposures, greater than anagrelide
Source text: The PDE III inhibitory properties of anagrelide are quite distinct from its platelet lowering anti-megakaryocytic effects. Indeed studies have shown no correlation between potency as a PDE III inhibitor and anti-megakaryocytic effects for anagrelide and its principal pharmacologically active metabolite, 3-hydroxyanagrelide (3-OH anagrelide or 3-HA, formerly known as SPD604 or BCH24426). […] Anagrelide's active metabolite, 3-HA, is present in vivo in amounts greatly exceeding those of the parent drug with typical exposures being 2-3 fold greater. Thus by implication 3-OH anagrelide is likely to be a major contributor to the pharmacological actions of the drug.
In addition to the unwanted cardiovascular effects associated with PDE III inhibition, the consequent elevation of cAMP can result in an anti-aggregatory effect. While initially this property may appear to be beneficial in essential thrombocythemia patients predisposed to greater thrombotic risk, such anti-platelet effects, in excess, could have haemorrhagic consequences and on balance may not be desirable. […]

[3] = test system: TPO-induced megakaryocytopoiesis; conditions: cited from earlier work
[4] = cited from earlier work
[5] = test system: erythroid or myelomonocytic differentiation; conditions: stimulated by erythropoietin or granulocyte-macrophage colony-stimulating factor; cited from earlier work
[6] = target: human phosphodiesterase III (PDE III); conditions: cited from earlier work

Row | Compound | potency as PDE III inhibitor relative to anagrelide [1] | exposure in vivo relative to parent drug [2] | potency in inhibition of megakaryocytopoiesis relative to parent drug ([3]; compared with anagrelide) | half-life ([4]; typical) [h] | pIC50 ([3]; estimated, in vitro human megakaryocytopoiesis, read-out: IC50 for inhibition of TPO-induced megakaryocytopoiesis) | effect on erythroid or myelomonocytic differentiation [5] | pIC50 [6] | first pass effect ([4]; in vivo) [%]
1 | O=C1NC2=Nc3ccc(Cl)c(Cl)c3CN2C1O (stereo not drawn) [3-hydroxyanagrelide] | over 40 fold | 2-3 fold | no more potent than the parent drug | 2.5 | – | – | – | –
2 | O=C1CN2Cc3c(ccc(Cl)c3Cl)N=C2N1 [Anagrelide, 6,7-dichloro-1,5-dihydroimidazo[2,1-b]-quinazolin-2(3H)-one] | – | – | – | – | ~7.59 | does not affect | ~7.54 | > 50
3 | Cc1[nH]c(=O)c(C#N)cc1-c1ccncc1 [milrinone] | – | – | – | – | – | – | 6.46 to 6.77 | –
